# Like-named read-outs stand apart in the source and are kept apart here.
# Key:
# [1] = Storage stability at room temperature and light exposure; assay type: physicochemical
# [2] = Drug solubility in ointment, absence of crystals by polarised microscopy; assay type: physicochemical; details: Hydromol ointment with DMSO
# Experimental: These included drug incorporation into liquified vehicle at 70°C, pre-disolvement in DMSO, ethanol, isopropanol, polyethyene glycol 300, and olive oil followed by vehicle incorporation, as well as a variety of vehicles (liquid paraffin, Hydromol ointment, aqueous ointment BP). Drug solubility was assessed using a previously reported method relying on the absence of crystals detectable by polarised microscopy.
# All PPAR β/δ antagonists were custom-synthesized by AF-Chempharm (UK). […] Compound 3 h was pre-dissolved in DMSO, left at room temperature for 20 min at low agitation and then incorporated into Hydromol ointment using a melamin bowl to yield final concentrations of 0.5% (w/w) 3 h, and 5% (w/w) of DMSO, respectively. […] Vehicle-only contro ointment was prepared exactly as GSK0660 ointment while omitting the chemical itself. Ointments were stored in airtight containers at 4°C in the dark and made fresh once a week.
# [3] = tested on: HB-EGF, IL1b, LCE3e/LCE3f expression; experiment: Real-time PCR of PPAR β/δ target genes in skin; assay type: in vivo, PPAR β/δ transgenic mice
# Text: Skin was processed by removing subcutaneous tissue and small skin pieces were snap frozen in liquid nitrogen. Frozen skin was ground and RNA was extracted using the NucleoSpin RNA/Protein kit from Macherey-Nagel. cDNA synthesis was done with the SuperScript Vilo cDNA synthesis kit from Invitrogen. Gene expression levels were quantified using TaqMan-based real-time PCR using Assays-on-Demand kits obtained from Applied biosystems according to the manufacturer's instruction and quantification performed as calibrated to the internal housekeeping gene GAPDH (LCE3f: Mm02605425, Il1β: Mm01336189, Hb-EGF: Mm00439305).
# [4] = Drug quantification in skin and blood of diseased mice (mass spectrometry); assay type: in vivo, PPAR β/δ transgenic mice; details: for concentration at 12 h: 12 h after the last cream application
# Experimental: (§1) 50 µL of cardiac blood were diluted 1∶2 (v∶v) with milipore water and snap frozen immediately. Previously treated skin segments were shaved, tape-stripped three times to remove residual hair and non-absorbed ointment on the surface, and then snap frozen in liquid nitrogen. Frozen skin was ground and ten times the volume of methanol-water (1∶1 v/v) was added per weight unit of skin. A minimum of 20 mg of skin was used per each sample. Samples were homogenized with a Covaris S2 acoustic homogeniser. For both cardiac blood and skin homogenate, proteins were precipitated by adding 3 volumes of acetonitrile containing a suitable internal standard. All samples were then centrifuged for 10 minutes at 2800 rpm before transfer of 200 µL of supernatant into a 96 well plate and 100 µL of milliQ water added. Calibration curves were constructed in either untreated homogenised skin or blood to cover at least 3 orders of magnitude (1–2000 ng/mL) and extracted as for aforementioned study samples. All cardiac blood, skin samples and standards were then investigated by mass spectrometry as described below. For calculation of total blood volume, mice were weighed and an average blood volume of 7% (mL/g) of body mass was assumed.
# (§2) An Acquity ultra high performance liquid chromatography (UPLC) system; consisting of an autosampler, the Acquity UPLC Sample Manager with Sample Organiser, a pump, the Acquity UPLC Binary Solvent Manager, an in-built column oven, a UV detector, the Acquity UPLC Photo Diode Array) and a Quattro Premier XE triple quadrupole mass spectrometer (Waters, UK). […] The analytical column was an Acquity UPLC BEH C18, 2.1 mm i.d. ×50 mm length, 1.7 µm particle size (Waters, UK). No guard column was used, but a vanguard […].
# (§3) Mobile phase A was Milli-Q reverse phase de-ionised water with formic acid (0.1%, v∶v), mobile phase B was acetonitrile with formic acid (0.1%, v∶v). Mobile phase was delivered at a flow rate of 0.6 mL/min. […] Finally mobile phase B was returned to 5% over 0.1 min and maintained at this composition for 0.4 min. Total run time 3 min.
# (§4) The entire flow was introduced into the Mass spectrometer. The autosampler was set at 4°C and an injection voloume of 5 µL was used (partial loop). […] An in-house proprietary internal standard was used for determination of all 3 analytes.
# [5] = Skin concentration after topical application (UPLC/mass spectrometry); assay type: in vivo, C57Bl/6j wild type mice; details: for local concentration in skin at steady state: twice daily for seven days, even for the lower dose used (0.2%), 1 h after last application
# Experimental: as §1, §2
# as §3, with “3 min. […]” for “3 min.”
# shaved dorsal skin = experiment: Skin histology after one week of topical application (inflammatory changes); assay type: in vivo, C57Bl/6j wild type mice; details: for number of dermal nuclei per high power field: vs vehicle-only treated skin; for epidermal hyperplasia induced by antagonist: twice daily for one week
# Experimental: We next determined the local concentrations in skin at steady state after prolonged topical application. […] Skin samples were then extracted and analysed by mass spectrometry for concentration determination as well as processed for histology. […] 90 min (cf. fig. 2b). […] Infrequently, we noted apoptotic epidermal keratinocytes (inset, middle row of H&E sections). Since these cells were also found in transgenic PPAR β/δ mice treated with the agonist only (figure S1), the exact underlying cause is unclear but unlikely to underlie the treatment effect of the antagonist creams.
# Figure 4 Absence of inflammatory changes induced by PPAR β/δ antagonists in skin after topical application. […] Mice were sacrificed 1 h after the last ointment application and skin tissue processed for H&E based histology and mass spectrometry, as described in Methods. Data shown represent average ± s.d. of n = 3 mice per data point (left) treated with GSK (blue columns) or compound 3 h (red). Representative histology sections of all treated mice are shown on right. […] Horizontal bar represents 5 µm.
# (§5) Mice were sacrificed, skin samples obtained and processed for H&E based histology as described. All samples were photographed at 200× magnification. Epidermal thickness was measured for all slides by a blinded observer at perpendicular angle to the basement membrane. The absence of variable planes of tissue sectioning as a confounder for apparent epidermal thickness was ruled out by verifying visible perpendicular insertion of hair follicles into the epidermis. For each sample, two measurements were taken in two separately photographed non-adjacent sections of the H&E stained skin sample.
# [6] = Blood concentration after topical application (UPLC/mass spectrometry); assay type: in vivo, C57Bl/6j wild type mice; details: for total amount of detectable compound in blood as fraction of total drug applied: 1 h after topical application, blood volume assumed 7% of body mass
# Experimental: as §1, §2, §3, §4
# [7] = design: method as in PMID 17975020; details: cited from earlier work
# other PPAR isoforms = tested on: other PPAR isoforms; design: method as in references listed in Figure 1 / ref 13; details: in vitro data taken from literature, ref references listed in Figure 1 / ref 13, cited from earlier work
# [8] = tested on: PPAR β/δ mediated skin disease; experiment: Control of skin disease induced by i.p. GW501516, ointment at different frequencies; assay type: in vivo, PPAR β/δ transgenic mice
# Experimental: All animal studies reported here were subject to approval of Tayside Research Ethics Committee, and are conducted in accordance with UK Home Office procedures (project licence 60/3800, licence holder JF). Breeding of PPAR β/δ transgenic mice and genotyping were all carried out as described previously. […]
# as §5, with “The absence of variable planes of tissue sectioning as a confounder for apparent epidermal thickness was ruled out by verifying visible perpendicular insertion of hair follicles into the epidermis.” left out
# PPARβ/δ [9] = details: cited from earlier work; for IC50: in vitro data taken from literature, ref references listed in Figure 1, read-out: IC50 PPARβ/δ binding
# PPARβ/δ [10] = details: in vitro data taken from literature; ref references listed in Figure 1; read-out: EC50 PPARβ/δ competitive antagonism; cited from earlier work
# [11] = tested on: PPAR β/δ mediated psoriasis-like skin disease; experiment: Prevention of epidermal hyperplasia, agonist GW501516 and antagonist both topical; assay type: in vivo, PPAR β/δ transgenic mice; details: antagonist ointment once per day, GW501516 0.1% ointment five times per week, 20 days
# Experimental: as §5, with “The absence of variable planes of tissue sectioning as a confounder for apparent epidermal thickness was ruled out by verifying visible perpendicular insertion of hair follicles into the epidermis.” left out
# psoriasis (PASI scores) = tested on: psoriasis (PASI scores); design: method as in PMID 15479756; details: systemic administration; cited from earlier work
# PPAR β/δ = tested on: PPAR β/δ; design: method as in PMID 17488971; details: cited from earlier work
# psoriasis = tested on: psoriasis; design: method as in PMID 12673084; details: cited from earlier work
smiles,measurement,setting,value
COC(=O)c1sccc1S(=O)(=O)Nc1ccc(Nc2ccccc2)cc1OC [GSK0660],stability on storage (colour change),[1],visible colour change from yellow to green
same,drug concentration up to which the optimised ointment formulation is devoid of drug crystals,[2],up to 2 % (w/w)
same,reversal of IL1b expression,"[3]; qPCR, oral GW501516, ointment twice daily three weeks",only observed using the ointment containing GSK0660
same,concentration at 12 h,"[4]; PPAR β/δ transgenic, mouse, skin, topical, after 20 days of treatment, read-out: concentration in skin tissue",48 ± 18 ng/g
same,concentration at 12 h,"[4]; PPAR β/δ transgenic, mouse, whole blood, topical, after 20 days, threshold of detection, read-out: concentration in blood",< 25 nM
same,half-life,"[5]; C57Bl/6j, mouse, topical, 42 mg ointment applied to dorsal skin (figure 3)",~1.5 h
same,local concentration in skin at steady state,[5],high local concentrations
same,apoptotic epidermal keratinocytes,"shaved dorsal skin; one week, H&E",apoptotic looking cells
same,number of dermal nuclei per high power field,shaved dorsal skin; one week,unchanged as compared to vehicle-only treated skin
same,epidermal hyperplasia induced by antagonist,shaved dorsal skin; H&E,neither antagonist produced notable epidermal hyperplasia
same,total amount of detectable compound in blood as fraction of total drug applied,[6],less than 0.01%
same,drug accumulation in blood,[6]; blood measured for 24 h after drug application,no evidence of drug accumulation
same,total drug detectable in blood as fraction of total drug applied,[6]; over 24 h after drug application (figure 2b),less than 0.01%
same,bioavailability upon systemic administration,[7],lack of bioavailability upon systemic administration
same,Activity on other PPAR isoforms,other PPAR isoforms,Not active at 10 μM
O=C(NCCS(=O)(=O)c1ccc(C(F)(F)F)cn1)c1ccc(Cl)cc1 [GSK3787],range of therapeutic activity,[8]; H&E of treated area and its edge (figure S2),efficacy was limited to the area of cream application
same,reducing the amount of dermal infiltrate,[8]; even when applied only 3× per week (fig. 7b),as effective as GSK0660
same,preventing epidermal hyperplasia,"[8]; even when applied only 3× per week, comparator twice daily (fig. 7a)",as effective as GSK0660
same,"expression of PPAR β/δ target genes LCE3f, IL1-beta, and HBEGF",[3]; twice-daily versus three times weekly application (fig. 8b),suppression
same,mode of receptor inactivation,PPARβ/δ [9],irreversibly inactivates the receptor by forming a covalent bond
same,IC50,PPARβ/δ [9],6.7 nM
same,tissue level of unmodified drug in lesional skin,[4]; 16 h after the final application,240 ± 116 nmol/g of tissue
same,concentration at 16 h,"[4]; PPAR β/δ transgenic, mouse, whole blood, topical, inflamed skin, 16 h after last cream application, read-out: concentration in blood at the end of the experiment",445 ± 429 nM
same,EC50,PPARβ/δ [10],100 nM
same,concentration at 20 days,"[6]; C57Bl/6j, mouse, whole blood, topical, healthy mice after 20 days of twice-daily treatment, n = 3",50.2 ± 25.7 nM
same,Activity on other PPAR isoforms,other PPAR isoforms,Active on PPARγ at 1 μM
Cc1cc(SCc2sc(-c3ccc(C(F)(F)F)cc3)nc2C)ccc1OCC(=O)O [GW501516],systemic absorption relative to the antagonists,"[6]; 1 h post application, ointment concentrated 10-fold less (0.1%)",100 fold
same,peak serum concentration,"[6]; 1 h post topical application, 0.1% ointment",400 nM
CCCCOc1ccc(-c2ccc(C(=O)O)cc2C)cc1CNC(=O)c1ccc(C(F)(F)F)cc1F [compound 3 h],psoriasis-like epidermal hyperplasia induced by GW501516,[11],significantly attenuated
same,drug concentration up to which the optimised ointment formulation is devoid of drug crystals,[2],up to 2 % (w/w)
same,IC50,PPARβ/δ [9],10 nM
same,Ki,PPARβ/δ [9]; low reported Ki,11 nM
same,local concentration in skin at steady state,[5],high local concentrations
same,EC50,PPARβ/δ [10],11 nM
same,number of dermal nuclei per high power field,shaved dorsal skin; one week,unchanged as compared to vehicle-only treated skin
same,epidermal hyperplasia induced by antagonist,shaved dorsal skin; H&E,neither antagonist produced notable epidermal hyperplasia
same,peak systemic concentration compared with reported EC50/IC50,[6]; 1 h after topical application of ointment,slightly above the in vitro determined EC50 value
same,total amount of detectable compound in blood as fraction of total drug applied,[6],less than 0.01%
same,Activity on other PPAR isoforms,other PPAR isoforms; listed as Compound 3 h,lack of activity on other PPAR isoforms
same,Activity on other PPAR isoforms,other PPAR isoforms; listed as Compound 3h,Not active at 1 μM
CCc1ccc(CCOc2ccc(CC3SC(=O)NC3=O)cc2)nc1 (centres unmarked) [pioglitazone],effect on PASI scores,psoriasis (PASI scores),no marked reduction of PASI scores
CN(CCOc1ccc(CC2SC(=O)NC2=O)cc1)c1ccccn1 (centres unmarked) [rosiglitazone],activation of PPAR β/δ,PPAR β/δ,can also activate PPAR β/δ
same,effect of topical application on psoriasis,psoriasis,showed no effect
"CCCCCCCCCCCCCCSCC(=O)O [tetradecylthioacetic acid (TTA), tetradecylthioacetic acid]",effect of topical application on psoriasis,psoriasis,showed no effect

# — publication PMC3351437, “Skin-Targeted Inhibition of PPAR β/δ by Selective Antagonists to Treat PPAR β/δ – Mediated Psoriasis-Like Skin Disease In Vivo” (PLoS ONE, 2012)
